In US10064873B2, “Compounds and compositions for treating HIV with derivatives of Betulin” (GlaxoSmithKline LLC, priority 2011, dated 2018):
Like-named read-outs stand apart in the source and are kept apart here.

System: HIV NL4-3 wt
Assay: MT4 antiviral assay, NL4-3 strain wild type
Type: cell-based, HIV-1
[1] = Human immunodeficiency virus 1, NL43, MT4 cells, read-out: EC50 NL4-3 wt
[2] = Human immunodeficiency virus 1, NL43, MT4, read-out: EC50 NL4-3 wt (nM)

SMILES: CC(=O)N(Cc1cccc(Cl)c1)C[C@@H](O)[C@@]12CC[C@]3(C)[C@H](CC[C@@H]4[C@@]5(C)CC[C@H](OC(=O)CC(C)(C)C(=O)O)C(C)(C)[C@@H]5CC[C@]43C)C1=C(C(C)C)C(=O)C2 [Example 47, 4-(((3aR,5aR,5bR,7aR,9S,11aR,11bR,13aS)-3a-((S)-2-(N-(3-chlorobenzyl)acetamido)-1-hydroxyethyl)-1-isopropyl-5a,5b,8,8,11a-pentamethyl-2-oxo-3,3a,4,5,5a,5b,6,7,7a,8,9,10,11,11a,11b,12,13,13a-octadecahydro-2H-cyclopenta[a]chrysen-9-yl)oxy)-2,2-dimethyl-4-oxobutanoic acid]
- EC50 [1]: 7.7 nM

SMILES: CCN(Cc1ccccc1Cl)C[C@H](O)[C@@]12CC[C@]3(C)[C@H](CC[C@@H]4[C@@]5(C)CC[C@H](OC(=O)CC(C)(C)C(=O)O)C(C)(C)[C@@H]5CC[C@]43C)C1=C(C(C)C)C(=O)C2 [Example 49, 4-(((3aR,5aR,5bR,7aR,9S,11aR,11bR,13aS)-3a-((R)-2-((2-chlorobenzyl)(ethyl)amino)-1-hydroxyethyl)-1-isopropyl-5a,5b,8,8,11a-pentamethyl-2-oxo-3,3a,4,5,5a,5b,6,7,7a,8,9,10,11,11a,11b,12,13,13a-octadecahydro-2H-cyclopenta[a]chrysen-9-yl)oxy)-2,2-dimethyl-4-oxobutanoic acid]
- EC50 [2]: 21.8 nM

SMILES: CC(C)C1=C2[C@H]3CC[C@@H]4[C@@]5(C)CC[C@H](OC(=O)CC(C)(C)C(=O)O)C(C)(C)[C@@H]5CC[C@@]4(C)[C@]3(C)CC[C@@]2([C@@H](O)CN(CCN(C)C)Cc2ccccc2Cl)CC1=O [Example 50, 4-(((3aR,5aR,5bR,7aR,9S,11aR,11bR,13aS)-3a-((R)-2-((2-chlorobenzyl)(2-(dimethylamino)ethyl)amino)-1-hydroxyethyl)-1-isopropyl-5a,5b,8,8,11a-pentamethyl-2-oxo-3,3a,4,5,5a,5b,6,7,7a,8,9,10,11,11a,11b,12,13,13a-octadecahydro-2H-cyclopenta[a]chrysen-9-yl)oxy)-2,2-dimethyl-4-oxobutanoic acid]
- EC50 [1]: 1.1 nM

SMILES: CC(=O)O[C@@H](CNCc1ccccc1)[C@@]12CC[C@]3(C)[C@H](CC[C@@H]4[C@@]5(C)CC[C@H](OC(=O)CC(C)(C)C(=O)O)C(C)(C)[C@@H]5CC[C@]43C)C1=C(C(C)C)C(=O)C2 [Example 52, 4-(((3aR,5aR,5bR,7aR,9S,11aR,11bR,13aS)-3a-((R)-1-Acetoxy-2-(benzylamino)ethyl)-1-isopropyl-5a,5b,8,8,11a-pentamethyl-2-oxo-3,3a,4,5,5a,5b,6,7,7a,8,9,10,11,11a,11b,12,13,13a-octadecahydro-2H-cyclopenta[a]chrysen-9-yl)oxy)-2,2-dimethyl-4-oxobutanoic acid]
- EC50 [1]: 4.6 nM

SMILES: CC(C)C1=C2[C@H]3CC[C@@H]4[C@@]5(C)CC[C@H](OC(=O)CC(C)(C)C(=O)O)C(C)(C)[C@@H]5CC[C@@]4(C)[C@]3(C)CC[C@@]2([C@H]2CN(C3(c4ncc(Cl)cn4)CC3)C(=O)O2)CC1=O [Example 60, 4-(((3aR,5aR,5bR,7aR,9S,11aR,11bR,13aS)-3a-((S)-3-(1-(5-chloropyrimidin-2-yl)cyclopropyl)-2-oxooxazolidin-5-yl)-1-isopropyl-5a,5b,8,8,11a-pentamethyl-2-oxo-3,3a,4,5,5a,5b,6,7,7a,8,9,10,11,11a,11b,12,13,13a-octadecahydro-2H-cyclopenta[a]chrysen-9-yl)oxy)-2,2-dimethyl-4-oxobutanoic acid]
- EC50 [2]: 60.2 nM

SMILES: CC(C)C1=C2[C@H]3CC[C@@H]4[C@@]5(C)CC[C@H](OC(=O)CC(C)(C)C(=O)O)C(C)(C)[C@@H]5CC[C@@]4(C)[C@]3(C)CC[C@@]2([C@@H]2CN(C3(c4ncc(Cl)cn4)CC3)C(=O)O2)CC1=O [Example 61, 4-(((3aR,5aR,5bR,7aR,9S,11aR,11bR,13aS)-3a-((R)-3-(1-(5-chloropyrimidin-2-yl)cyclopropyl)-2-oxooxazolidin-5-yl)-1-isopropyl-5a,5b,8,8,11a-pentamethyl-2-oxo-3,3a,4,5,5a,5b,6,7,7a,8,9,10,11,11a,11b,12,13,13a-octadecahydro-2H-cyclopenta[a]chrysen-9-yl)oxy)-2,2-dimethyl-4-oxobutanoic acid]
- EC50 [2]: 130 nM

SMILES: CC(C)C1=C2[C@H]3CC[C@@H]4[C@@]5(C)CC[C@H](OC(=O)CC(C)(C)C(=O)O)C(C)(C)[C@@H]5CC[C@@]4(C)[C@]3(C)CC[C@@]2([C@@H](O)CN2CCc3ccccc3C2)CC1=O [Example 63, 4-(((3aR,5aR,5bR,7aR,9S,11aR,11bR,13aS)-3a-((R)-2-(3,4-dihydroisoquinolin-2(1H)-yl)-1-hydroxyethyl)-1-isopropyl-5a,5b,8,8,11a-pentamethyl-2-oxo-3,3a,4,5,5a,5b,6,7,7a,8,9,10,11,11a,11b,12,13,13a-octadecahydro-2H-cyclopenta[a]chrysen-9-yl)oxy)-2,2-dimethyl-4-oxobutanoic acid]
- EC50 [1]: 3.2 nM

SMILES: CC(C)C1=C2[C@H]3CC[C@@H]4[C@@]5(C)CC[C@H](OC(=O)CC(C)(C)C(=O)O)C(C)(C)[C@@H]5CC[C@@]4(C)[C@]3(C)CC[C@@]2([C@H](O)CN2CCc3ccccc3C2)CC1=O [Example 64, 4-(((3aR,5aR,5bR,7aR,9S,11aR,11bR,13aS)-3a-((S)-2-(3,4-dihydroisoquinolin-2(1H)-yl)-1-hydroxyethyl)-1-isopropyl-5a,5b,8,8,11a-pentamethyl-2-oxo-3,3a,4,5,5a,5b,6,7,7a,8,9,10,11,11a,11b,12,13,13a-octadecahydro-2H-cyclopenta[a]chrysen-9-yl)oxy)-2,2-dimethyl-4-oxobutanoic acid]
- EC50 [1]: 7.2 nM

SMILES: CC(C)C1=C2[C@H]3CC[C@@H]4[C@@]5(C)CC[C@H](OC(=O)CC(C)(C)C(=O)O)C(C)(C)[C@@H]5CC[C@@]4(C)[C@]3(C)CC[C@@]2(CCNCc2ccc(Cl)cc2)CC1 [Example 66, 4-(((3aR,5aR,5bR,7aR,9S,11aR,11bR,13aS)-3a-(2-((4-chlorobenzyl)amino)ethyl)-1-isopropyl-5a,5b,8,8,11a-pentamethyl-3,3a,4,5,5a,5b,6,7,7a,8,9,10,11,11a,11b,12,13,13a-octadecahydro-2H-cyclopenta[a]chrysen-9-yl)oxy)-2,2-dimethyl-4-oxobutanoic acid]
- EC50 [1]: 9.2 nM

SMILES: CC(C)C1=C2[C@H]3CC[C@@H]4[C@@]5(C)CC[C@H](OC(=O)CC(C)(C)C(=O)O)C(C)(C)[C@@H]5CC[C@@]4(C)[C@]3(C)CC[C@@]2([C@H](O)CNCC2CCCCC2)CC1 [Example 67, 4-(((3aS,5aR,5bR,7aR,9S,11aR,11bR,13aS)-3a-((S)-2-((cyclohexylmethyl)amino)-1-hydroxyethyl)-1-isopropyl-5a,5b,8,8,11a-pentamethyl-3,3a,4,5,5a,5b,6,7,7a,8,9,10,11,11a,11b,12,13,13a-octadecahydro-2H-cyclopenta[a]chrysen-9-yl)oxy)-2,2-dimethyl-4-oxobutanoic acid]
- EC50 [1]: 136 nM

SMILES: CC(C)C1=C2[C@H]3CC[C@@H]4[C@@]5(C)CC[C@H](OC(=O)CC(C)(C)C(=O)O)C(C)(C)[C@@H]5CC[C@@]4(C)[C@]3(C)CC[C@@]2([C@H](O)CNC2CCCCC2)CC1=O [Example 68, 4-(((3aR,5aR,5bR,7aR,9S,11aR,11bR,13aS)-3a-((S)-2-(cyclohexylamino)-1-hydroxyethyl)-1-isopropyl-5a,5b,8,8,11a-pentamethyl-2-oxo-3,3a,4,5,5a,5b,6,7,7a,8,9,10,11,11a,11b,12,13,13a-octadecahydro-2H-cyclopenta[a]chrysen-9-yl)oxy)-2,2-dimethyl-4-oxobutanoic acid]
- EC50 [1]: 10.5 nM

SMILES: CC(=O)O[C@H](CN(CCN(C)C)Cc1ccc(F)cc1)[C@@]12CC[C@]3(C)[C@H](CC[C@@H]4[C@@]5(C)CC[C@H](OC(=O)CC(C)(C)C(=O)O)C(C)(C)[C@@H]5CC[C@]43C)C1=C(C(C)C)C(=O)C2 [Example 70, 4-(((3aR,5aR,5bR,7aR,9S,11aR,11bR,13aS)-3a-((S)-1-acetoxy-2-((2-(dimethylamino)ethyl)(4-fluorobenzyl)amino)ethyl)-1-isopropyl-5a,5b,8,8,11a-pentamethyl-2-oxo-3,3a,4,5,5a,5b,6,7,7a,8,9,10,11,11a,11b,12,13,13a-octadecahydro-2H-cyclopenta[a]chrysen-9-yl)oxy)-2,2-dimethyl-4-oxobutanoic acid]
- EC50 [1]: 1.6 nM

SMILES: CC(=O)O[C@@H](CN(CCN(C)C)Cc1ccc(F)cc1)[C@@]12CC[C@]3(C)[C@H](CC[C@@H]4[C@@]5(C)CC[C@H](OC(=O)CC(C)(C)C(=O)O)C(C)(C)[C@@H]5CC[C@]43C)C1=C(C(C)C)C(=O)C2 [Example 71, 4-(((3aR,5aR,5bR,7aR,9S,11aR,11bR,13aS)-3a-((R)-1-acetoxy-2-((2-(dimethylamino)ethyl)(4-fluorobenzyl)amino)ethyl)-1-isopropyl-5a,5b,8,8,11a-pentamethyl-2-oxo-3,3a,4,5,5a,5b,6,7,7a,8,9,10,11,11a,11b,12,13,13a-octadecahydro-2H-cyclopenta[a]chrysen-9-yl)oxy)-2,2-dimethyl-4-oxobutanoic acid]
- EC50 [1]: 31.2 nM

SMILES: CC(C)C1=C2[C@H]3CC[C@@H]4[C@@]5(C)CC[C@H](OC(=O)CC(C)(C)CC(=O)O)C(C)(C)[C@@H]5CC[C@@]4(C)[C@]3(C)CC[C@@]2([C@@H](O)CNCc2ccc(Cl)cc2)CC1=O [Example 72, 5-(((3aR,5aR,5bR,7aR,9S,11aR,11bR,13aS)-3a-((R)-2-((4-chlorobenzyl)amino)-1-hydroxyethyl)-1-isopropyl-5a,5b,8,8,11a-pentamethyl-2-oxo-3,3a,4,5,5a,5b,6,7,7a,8,9,10,11,11a,11b,12,13,13a-octadecahydro-2H-cyclopenta[a]chrysen-9-yl)oxy)-3,3-dimethyl-5-oxopentanoic acid]
- EC50 [1]: 5.1 nM

SMILES: CC(C)C1=C2[C@H]3CC[C@@H]4[C@@]5(C)CC[C@H](OC(=O)CC(C)(C)CC(=O)O)C(C)(C)[C@@H]5CC[C@@]4(C)[C@]3(C)CC[C@@]2([C@H](O)CNCc2ccc(Cl)cc2)CC1=O [Example 73, 5-(((3aR,5aR,5bR,7aR,9S,11aR,11bR,13aS)-3a-((S)-2-((4-chlorobenzyl)amino)-1-hydroxyethyl)-1-isopropyl-5a,5b,8,8,11a-pentamethyl-2-oxo-3,3a,4,5,5a,5b,6,7,7a,8,9,10,11,11a,11b,12,13,13a-octadecahydro-2H-cyclopenta[a]chrysen-9-yl)oxy)-3,3-dimethyl-5-oxopentanoic acid]
- EC50 [1]: 31.8 nM
